Measured values from the NIST ThermoML archive (doi:10.1016/j.jct.2003.09.011).
Numbers after ± are expanded uncertainties.

Assay: activity coefficient (dimensionless); of the first substance listed, at infinite dilution; xn = mol fraction of the nth substance listed
Conditions: Liquid, Chromatography, x1 = 0

SMILES | activity coefficient (278.15 K) | activity coefficient (298.15 K)
C1CCCC1 [cyclopentane] + O=Cc1ccco1 | 14.2 ± 1.2 | 13.3 ± 1.2
C1CCCCC1 [cyclohexane] + O=Cc1ccco1 | 16.8 ± 1.5 | 13.6 ± 1.2
C#CCCCC [1-hexyne] + O=Cc1ccco1 | 6.27 ± 0.54 | 5.09 ± 0.44
C1CCCCCC1 [cycloheptane] + O=Cc1ccco1 | 18.6 ± 1.6 | 15.5 ± 1.3
CCCCCCC [heptane] + O=Cc1ccco1 | 38.1 ± 3.3 | 33.4 ± 2.9
C#CCCCCC [1-heptyne] + O=Cc1ccco1 | 20 ± 1.7 | 17.9 ± 1.5
C=CCCCC [hex-1-ene] + O=Cc1ccco1 | 15.2 ± 1.3 | 15 ± 1.3
CCCCCC [hexane] + O=Cc1ccco1 | 31.9 ± 2.8 | 27.8 ± 2.4
CCCCC [pentane] + O=Cc1ccco1 | 24.3 ± 2.1 | 21.6 ± 1.9
c1ccccc1 [benzene] + O=Cc1ccco1 | 2.55 ± 0.22 | 2.45 ± 0.21
